Assay results as given in US20160199380A1, “Sigma Ligands For the Prevention or Treatment of Pain Induced by Chemotherapy” (Laboratorios del Dr. Esteve, S.A., priority 2009, published 2016).
One block for each molecule: values may come before it.

What was measured:
[1] = system: paclitaxel-induced cold allodynia; experiment: Acetone test, paclitaxel-induced cold allodynia in mice; type: in vivo, CD-1 mice
Method: (§1) Experiments were performed in CD-1 mice (Charles River, U.S.A.) with at least n=10/experimental group. […] Control animals received the same volume of solvent (a mixture of ethanol and cremophor EL)
(§2) Mechanical allodynia was evaluated with an electronically driven Von Frey filament (Dynamic Plantar. Aesthesiorneter, Ugo Basile, Varese, Italy) as previously described (Nieto et al., Pain, 2008, 137(3), 520-31), and cold allodynia was evaluated using the acetone drop method (Nieto et al., Pain, 2008, 137(3), 520-31). […] In addition, in order to study the influence of the sigma 1 receptor in this process the difference in development of allodynia was determined using wild-type mice and sigma 1-receptor knock-out-mice.
Therefore, the cumulative dose was 10 mg/kg per mouse. […]
The response of the animals to the different nociceptive stimuli was tested subsequently during 2-4 weeks, depending on the test (see below), without any additional treatment. Each animal was tested only in one nociceptive model. […] Each animal received only one dose of compound 63 and was tested in only one nociceptive model.
Procedure for assessment of cold allodynis. Cold allodynia was tested as previously described by Nieto et al., Pain, 2008, 137(3), 520-31, by gently touching the plantar skin of the hind paws with an acetone bubble formed with a syringe connected to a thin polyethylene tube. The mice were housed and habituated for 30 min in transparent plastic boxes (7×7×13 cm) with a floor made of wire mesh. After the adaptation period, acetone was applied alternately three times to each paw at intervals of 30 s, and the duration of licking or biting were recorded. A small mirror was placed behind the chambers to allow clear observation of the paws. The time spent licking or biting the paw was recorded by a stopwatch and represented as the cumulative time of licking/biting in the six measurements. Since licking persisting more than 10 s in the experiments was very unusual, a cut-off time of 10 s was used for each trial.
Therefore, the day 10, after the habituation period to the apparatus, baseline latencies were recorded, 30 min later compound 63 or saline was injected s.c. and paw withdrawal latencies were assessed again 60, 120 and 180 minutes after the injection.
(§3) On that day, duration of hind paw licking/biting was recorded immediately before (time 0) and at several times (60, 120 and 180 min) after the injection of compound 63 or saline.
as §3

[2] = system: paclitaxel-induced mechanical allodynia; experiment: Electronic Von Frey (Dynamic Plantar Aesthesiometer), paclitaxel-induced mechanical allodynia in mice; type: in vivo, CD-1 mice
Method: as §1, §2
Therefore, the cumulative dose was 10 mg/kg per mouse. In the control group the vehicle of paclitaxel was administered following the same schedule.
Compound 63 was dissolved in normal saline just before administration and applied at doses of 8, 16, 32 or 64 mg/kg subcutaneously.
The effects of Compound 63 on paclitaxel-induced neuropathic pain were examined in two different ways. […] The response of the animals to the different nociceptive stimuli was tested subsequently during 2-4 weeks, depending on the test (see below), without any additional treatment. Each animal was tested only in one nociceptive model. To test the effect of compound 63 on the expression of paclitaxel-induced pain, a single compound 63 injection was performed on day 10, a day of maximum expression of mechanical allodynia or cold aliodynia (see figures for details). Each animal received only one dose of compound 63 and was tested in only one nociceptive model.
Procedure for assessment of mechanical allodynia. To assess mechanical allodynia, paw withdrawal thresholds were measured using a Dynamic Plantar Aesthesiometer (Ugo Basile, Italy). The electronic Von Frey device employs a single nonflexible filament which applies a progressively increasing force (from 0 to 10 g) against the plantar surface of the hind paw over a 20 a period. […] The day of the experiment, mice were placed individually in test compartments (9×9×14 cm) with a wire mesh bottom and allowed to acclimatize to them for 2 h. After habituation, each mouse was tested three times alternately in each hind paw.
On that day, paw withdrawal latency was recorded immediately before (time 0) and at several times (30, 60, 90, 120 and 180 min) after the injection of compound 63 or saline.

[3] = system: Oxaliplatin-induced cold allodynia; experiment: Acetone test, chronic model of oxaliplatin-induced neuropathy in rats; type: in vivo, Sprague-Dawley rats; conditions: for reaction time of paw withdrawal (acetone test), curative treatment: throughout the study; for decrease in the reaction time of paw withdrawal as compared to the HPMC/distilled water-treated group: oxaliplatin 3 mg/kg i.p. 3 times a week + 0.5% HPMC
Method: Sixty male Sprague-Dawley rats (CERJ, France), weighing 136-169 g at the beginning of the experimental phase (first administration of compounds on D-2), were used. Rats were housed in a temperature (19.5° C.-24.5° C.) and relative humidity (45%-65%) controlled room with a 12 h—light/dark cycle, with ad libitum access to standard pelleted laboratory chow and water throughout the study.
All treatments were administered in a coded order when it is possible.
Animals were tested 2 times during treatment with compound 63 (i.e. D8 and D15) and once 24 h after completion of treatment with compound 63 (i.e. D16).
During the testing days (i.e. D8, D15), compound 63 and 0.5% HPMC were administered 30 min before the test.
Cold allodynia was assessed by measuring the responses to thermal non-nocic ptive stimulation (acetone test) on D8, D15 and D16.
Cold allodynia was assessed using the acetone test. In this test, latency of hindpaw withdrawal was measured after application of a drop of acetone to the plantar surface of both hindpaws (reaction time) and the intensity of tne response was scored (cold score).
Reaction time to the cooling effect of acetone was measured within 20 sec (cut-off) after acetone application. Responses to acetone were also graded to the following 4-point scale: 0 (no response); 1 (quick withdrawal, flick of the paw); 2 (prolonged withdrawal or marked flicking of the paw); 3 (repeated flicking of the paw with licking or biting).
For each experimental group, the results were expressed as: • The reaction time defined as the time expressed in sec required to elicit paw reaction (mean of 6 measures for each rat together±SEM). • The cumulative cold score defined as the sum of the 6 scores for each rat together±SEM. The minimum score being 0 (no response to any of the 6 trials) and the maximum possible score being 18 (repeated flicking and licking or biting of paws on each of the six trials).
Statistical significance between the treated groups and the vehicle-treated group was determined by a Two-way Repeated Measures ANOVA on Ranks followed, when the F value is significant, by an appropriate post-hoc comparison (Bonferroni's test sing SigmaStet software. The significance level was p<0.05. Statistical analyses were done using SigmaStet software.

[4] = system: Cisplatin-induced mechanical allodynia; type: in vivo, Wistar rats; conditions: rats
Method: Male Wistar rats (250-300 g) were obtained from Harlan-lberica (Barcelona, Spain). Upon arrival to our laboratory, animals were stored in standard transparent cages (40×28×25 cm) in environmentally controlled conditions (temperature=20° C,; humidity=60%) with a 12 h light/12 h dark cycle (lights on between 08:00 and 20:00 h). Animals were allowed free access to tap water and standard laboratory rat chow (Harlan-lberica, Barcelona, Spain).
Prior to the experiment, rats were habituated to isolation. Rats received intraperitoneal injections one day per week for 5 weeks of cisplatin (1 mg/kg)+vehicle (control group for acute treatment) or cisplatin (1 mg/kg)+compound 63 (25 mg/kg). The last week (day 36) control group received an acute administration of 64 mg/kg of compound 63.
Mechanical allodynia was assessed before cisplatin administration (basal) and at the end of each experimental week (w1, w2, w3, w4). For the acute evaluation of compound 63 (w5), the mechanical allodynia was assessed 50 minutes after drug administration. On those days, rats were placed individually on an elevated iron mesh in a clear plastic cage and were allowed to adapt to the testing environment for at least 10 min. Habituation to this environment was also performed on the two days before assessment. […] Only robust and immediate withdrawal responses from the stimulus were recorded. […]

[5] = system: patients treated with paclitaxel; conditions: paclitaxel dose 135 mg/m^2; cited from earlier work
[6] = 0.5% HPMC/Oxaliplatin-treated group, D8
[7] = 0.5% HPMC/Oxaliplatin-treated group, D15
[8] = 0.5% HPMC/Oxaliplatin-treated group, D16
[9] = paclitaxel 2 mg/kg i.p. once daily during 5 days, mice
[10] = paclitaxel 2 mg/kg i.p. during 5 days

Compound: Cc1cc(OCCN2CCOCC2)nn1-c1ccc2ccccc2c1 [Compound 63, 4-{2-[5-Methyl-1-(naphthalen-2-yl)-1H-pyrazol-3-yloxy]ethyl}morpholine]
response of the animals to acetone, co-administration with paclitaxel-vehicle ([1]; 64 mg/kg s.c. 30 min before each paclitaxel-vehicle injection, days 1-5, vs paclitaxel-vehicle + saline): did not significantly modify the response of the animals to acetone
response to acetone of control (paclitaxel-vehicle treated) animals ([1]; 64 mg/kg s.c. single injection on day 10, paclitaxel-vehicle treated mice): did not afex: the response to acetone
development of cold allodynia induced by paclitaxel (acetone test) ([1]; co-administration: 64 mg/kg s.c. 30 min before each paclitaxel 2 mg/kg i.p. injection, days 1-5, mice): inhibited the development of cold allodynia induced by paclitaxel
expression of paclitaxel-induced cold allodynia (duration of hind paw licking/biting, acetone test) ([1]; single s.c. injection 32-128 mg/kg on day 10 after paclitaxel 2 mg/kg i.p. days 1-5, mice, vs saline): inhibited the expression of paclitaxel-induced cold allodynia
mechanical response of control (paclitaxel-vehicle treated) animals ([2]; 64 mg/kg s.c. single injection on day 10 after first paclitaxel-vehicle injection): did not affect the mechanical response
expression of mechanical allodynia induced by paclitaxel (threshold force for hind paw withdrawal) ([2]; 64 mg/kg s.c. single injection on day 10 after paclitaxel 2 mg/kg i.p. days 1-5): inhibited the expression of mechanical aliodynia induced by paclitaxel
reaction time of paw withdrawal (acetone test), curative treatment ([3]; 20 mg/kg i.p. daily D8-D15): low effect
cumulative cold score (acetone test), curative treatment ([3]; 40 mg/kg i.p. daily D8-D15): intermediate effect
reaction time of paw withdrawal (acetone test), curative treatment ([3]; 40 mg/kg i.p. daily D8-D15): intermediate effect
reaction time of paw withdrawal (acetone test), preventive treatment ([3]; 40 mg/kg i.p. twice a day from D-2 to D15, oxaliplatin 3 mg/kg i.p., rats): induced a beneficial effect
cumulative cold score (acetone test) ([3]; curative, 20 mg/kg i.p., D8): 4.3±0.6
cumulative cold score (acetone test) ([3]; curative, 80 mg/kg i.p. daily D8-D15, D15): 1.8±0.3
reaction time of paw withdrawal (acetone test) ([3]; curative, 80 mg/kg i.p. daily D8-D15, D15, oxaliplatin 3 mg/kg i.p., rats): 17.5 ± 0.5 s
reaction time of paw withdrawal (acetone test) ([3]; curative, 80 mg/kg i.p. daily D8-D15, D16 (24 h after last dose), oxaliplatin 3 mg/kg i.p., rats): 15.5 ± 1.0 s
cumulative cold score (acetone test) ([3]; curative, 80 mg/kg i.p. daily D8-D15, D16, 24 hours after the last injection): 3.1±0.6
reaction time of paw withdrawal (acetone test) ([3]; curative, 80 mg/kg i.p. daily from D8, D8, oxaliplatin 3 mg/kg i.p., rats): 19.1 ± 0.3 s
cumulative cold score (acetone test) ([3]; curative, 80 mg/kg i.p., D8): 1.0±0.4
cumulative cold score (acetone test) ([3]; preventive, 40 mg/kg i.p. twice a day D-2 to D15, D8): 2.3±0.6
cumulative cold score (acetone test) ([3]; preventive, 40 mg/kg i.p. twice a day D-2 to D15, D15): 3.0±0.6
cumulative cold score (acetone test) ([3]; preventive, 40 mg/kg i.p. twice a day D-2 to D15, D16): 3.5±0.7
von Frey pressure response, acute treatment ([4]; 64 mg/kg on week 5, 50 minutes before the test, cisplatin 1 mg/kg once a week for 5 weeks): reverted the effect induced by cisplatin to basal levels
development of mechanical allodynia, preventive treatment ([4]; coadministration of 25 mg/kg twice a day, one day per week, same days as cisplatin 1 mg/kg): prevented the development of mechanical allodynia by cisplatin

Compound: O=C1[O][Pt]2([NH][C@@H]3CCCC[C@H]3[NH]2)[O]C1=O [Oxaliplatin, reference compound]
cumulative cold score (acetone test) [3, 6]: 5.0±0.8
reaction time of paw withdrawal (acetone test) [3, 6]: 14.7 ± 0.9 s
cumulative cold score (acetone test) [3, 7]: 7.0±1.2
reaction time of paw withdrawal (acetone test) [3, 7]: 11.5 ± 1.6 s
cumulative cold score (acetone test) [3, 8]: 6.7±0.9
reaction time of paw withdrawal (acetone test) [3, 8]: 11.5 ± 0.9 s
decrease in the reaction time of paw withdrawal as compared to the HPMC/distilled water-treated group ([3]; D8): −19%
decrease in the reaction time of paw withdrawal as compared to the HPMC/distilled water-treated group ([3]; D15): −37%
decrease in the reaction time of paw withdrawal as compared to the HPMC/distilled water-treated group ([3]; D16): −36%

animals with significantly increased time licking/biting the stimulated paw (paclitaxel-responder animals) [1, 9]: 67%
paclitaxel-treated animals that did not show cold allodynia [1, 9]: 33%
animals showing a reduction of the mechanical threshold [2, 10]: 96%
non-responder animals (mechanical threshold on day 10 not lower than pretreatment) [2, 10]: about 4%
induction of mechanical allodynia (threshold force for paw withdrawal, Von Frey test) ([2]; paclitaxel 2 mg/kg i.p. during 5 days, day 10): induced mechanical allodynia
Compound: CC(=O)O[C@H]1C(=O)[C@@]2(C)[C@H]([C@H](OC(=O)c3ccccc3)[C@]3(O)C[C@H](OC(=O)[C@H](O)[C@@H](NC(=O)c4ccccc4)c4ccccc4)C(C)=C1C3(C)C)[C@]1(OC(C)=O)CO[C@@H]1C[C@@H]2O [Paclitaxel]
patients progressing to dose-limiting neurotoxicity [5]: 0%
